Test system: mammary adenocarcinoma MA17/A
Test: Oral antitumor efficacy and toxicity against early stage mammary adenocarcinoma MA17/A grafted subcutaneously in mice
Assay type: in vivo
Conditions: for log cell kill: tumor doubling time 1.3 days
Experimental: Formulation II: 0.2 mg/ml of the compound of formula (la) was mixed in a solution comprising 5% ethanol, 5% Polysorbate 80, and 90% of an aqueous 5% glucose solution.
15 female C3H/HeN mice, each weighing approximately 20 g, were each administered Formulation II orally in a dose of 20.6 mg.kg^−1 per administration per mouse,12.8, 8.4 and 5.5 each day for 5 days.
Animals: The animals subjected to the experiment, generally mice, were subcutaneously grafted bilaterally with 30 to 60 mg of a mammary tumor fragment (adenocarcinoma MA17/A) on day 0. The animals bearing tumors were mixed before being assigned to the various treatment and control groups. Chemotherapy generally began from 3 to 7 days after grafting, depending on the type of tumour, and the animals were observed every day. The different animal groups were weighed 3 or 4 times a week until the maximum weight loss was attained, and the groups were then weighed at least once a week until the end of the trial.
Efficacy: The efficacy of the new pharmaceutical form was evaluated by:
the tumor growth inhibitor (T/C)
The T/C value in percent is an indication of antitumor effectiveness: [formula]
According to NCI standards, a T/C<42% is the minimal level to declare activity. A T/C<10% is considered to indicate high antitumor activity and is the level used by NCI to justify further development (Decision Network-2 level, DN-2).
The T/C value can be converted to an arbitrary activity rating according to the NCI criteria:
and quantified by the log cell kill which is determined by the following formula:
log10 cells killed=T−C(days)/3.32×Td
in which T−C represents the time in days for the tumors of the treated group (T) and the tumors of the non-treated group (C) to reach a predetermined value (750 mg for example). This method is described in T. H. CORBETT et al., Cancer, 40, 2660-2680 (1977); F.M. SCHABEL et al., Cancer Drug Development, Part B. Methods in Cancer Research, 17, 3-51, New York Academic Press Inc. (1979), the disclosure of which is incorporated by reference herein. A product is considered to be active if log10 cells killed is greater than or equal to 0.7. A product is considered to be very active if log10 cells killed is greater than 2.8.

[1] = p.o. 5.5 mg/kg/dose, days 3 to 7, total dose 27.5 mg/kg
[2] = p.o. 8.4 mg/kg/dose, days 3 to 7, total dose 42.0 mg/kg
[3] = p.o. 12.8 mg/kg/dose, days 3 to 7, total dose 64.0 mg/kg

## CO[C@H]1C(=O)[C@]2(C)[C@@H](OC)C[C@H]3OC[C@@]3(OC(C)=O)[C@H]2[C@H](OC(=O)c2ccccc2)[C@]2(O)C[C@H](OC(=O)[C@H](O)[C@@H](NC(=O)OC(C)(C)C)c3ccccc3)C(C)=C1C2(C)C [Product of formula IA, 4α-acetoxy-2α-benzoyloxy-5β,20-epoxy-1β-hydroxy-7β,10β-dimethoxy-9-oxo-11-taxen-13α-yl (2R, 3S)-3tert-butoxycarbonylamino-2-hydroxy-3-phenylpropionate]
[1]
  Comments: Inactive
  Drug death (days or death): 0/5
  T-C: 2.3 days
  Time for median tumor to reach 750 mg: 14.4 days
  Median tumor weight in mg on day 12 (range): 271(107-432) mg
  T/C in % day 12: 38%
  log cell kill: 0.5
p.o. 5.5 mg/kg/dose, days 3 to 7, total dose 27.5 mg/kg, day 8
  Average body weight change in % per mouse post last treatment (day): +0.2(8) %
[2]
  Comments: Active
  Drug death (days or death): 0/5
  T-C: 6.1 days
  Time for median tumor to reach 750 mg: 18.2 days
  Median tumor weight in mg on day 12 (range): 0(0-268) mg
  T/C in % day 12: 0%
  log cell kill: 1.4
p.o. 8.4 mg/kg/dose, days 3 to 7, total dose 42.0 mg/kg, day 9
  Average body weight change in % per mouse post last treatment (day): −11.0(9) %
[3]
  Comments: HNTD
  Drug death (days or death): 0/5
  T-C: 13.8 days
  Time for median tumor to reach 750 mg: 25.9 days
  Median tumor weight in mg on day 12 (range): 0(0-0) mg
  T/C in % day 12: 0%
  log cell kill: 3.2
p.o. 12.8 mg/kg/dose, days 3 to 7, total dose 64.0 mg/kg, day 10
  Average body weight change in % per mouse post last treatment (day): −17.9(10) %
p.o. 20.6 mg/kg/dose, days 3 to 7, total dose 103.0 mg/kg
  Comments: Toxic
p.o. 0.2 ml, 20.6 mg/kg/dose, days 3 to 7, total dose 103.0 mg/kg, female C3H/HeN mice
  Drug death (days or death): 5/5(7,2d8,10,11)

Reference: patent publication US20020082291A1, “NEW USE OF TAXOID DERIVATIVES” (priority 1999, published 2002)
